The text below walks through data of paper PMC8745314, “Novel Tetrazole-Based Antimicrobial Agents Targeting Clinical Bacteria Strains: Exploring the Inhibition of Staphylococcus aureus DNA Topoisomerase IV and Gyrase” (International Journal of Molecular Sciences, 2021).

Converted amounts (≈) assume the structure as drawn. Like-named read-outs stand apart in the source and are kept apart here.

Usually IC50 stands for the concentration at which inhibition is half-maximal.

Experiment [1] concerns clinical strains (S. aureus, S. epidermidis, E. coli, K. pneumoniae, P. aeruginosa). Briefly: MIC ranges over the panel of clinical strains. Type of experiment: cell-based. As to the method:
In the next stage of the experiment, 8 of 11 compounds were selected for a clinical strain activity evaluation against S. aureus, S. epidermidis, E. coli, K. pneumoniae, and P. aeruginosa. […] Additionally, all three inhibited the growth of all clinical Staphylococci panels: S. aureus (T5592; T5591) and S. epidermidis (5253; 4243) with MIC values of 0.8 μg/mL.
The antimicrobial assays were conducted using reference strains of bacteria derived from international microbe collections: American Type Culture Collection (ATCC) and National Collection of Type Culture (NCTC). The following standard strains of bacteria were used: Gram-positive—Staphylococcus aureus NCTC 4163, Staphylococcus aureus ATCC 25923, Staphylococcus aureus ATCC 6538, Staphylococcus aureus ATCC 29213, Staphylococcus epidermidis ATCC 12228, Staphylococcus epidermidis ATCC 35984, Gram-negative: Escherichia coli ATCC 25922, Pseudomonas aeruginosa ATCC 15442. Clinical strains of bacteria used in this study: Gram-positive: Staphylococcus epidermidis 5253, Staphylococcus epidermidis 4243, Staphylococcus aureus T5592, Staphylococcus aureus T5591 and Gram-negative: Escherichia coli 520, Escherichia coli 600, Klebsiella pneumoniae 510 and Pseudomonas aeruginosa 659 were obtained from the collection of the Department of Pharmaceutical Microbiology, Medical University of Warsaw, Poland and they were isolated from different biological materials taken from the patients hospitalized in the Warsaw Medical University hospitals. Antimicrobial activity was examined by the minimal inhibitory concentration (MIC) method under standard procedures provided by CLSI with some modifications. MIC was determined by the two-fold serial broth microdilution method in 96-well microtitration plates using Mueller–Hinton II broth medium (Becton Dickinson, Franklin Lakes, NJ, USA). The final inoculum of all studied bacteria was 10^6 CFU/mL (colony forming unit per milliliter). The stock solution of tested compounds was prepared in dimethyl sulfoxide (DMSO) and diluted to a maximum of 1% of solvent content with a sterile medium.

In the next experiment the test system is S. aureus ATCC 6538. Briefly: MIC broth microdilution, standard strain. Type of experiment: cell-based. As to conditions: Staphylococcus aureus, ATCC6538; S. aureus ATCC 6538, standard strain, 19 h at 35 °C; read-out: minimal inhibitory concentration (MIC). As to the method: (§1) All synthesized compounds were tested in vitro against a set of bacteria, including representative standard Gram-positive and Gram-negative rods. Compounds were screened for their minimal inhibitory concentrations (MICs). […] The antimicrobial assays were conducted using reference strains of bacteria derived from international microbe collections: American Type Culture Collection (ATCC) and National Collection of Type Culture (NCTC). The following standard strains of bacteria were used: Gram-positive-Staphylococcus aureus NCTC 4163, Staphylococcus aureus ATCC 25923, Staphylococcus aureus ATCC 6538, Staphylococcus aureus ATCC 29213, Staphylococcus epidermidis ATCC 12228, Staphylococcus epidermidis ATCC 35984, Gram-negative: Escherichia coli ATCC 25922, Pseudomonas aeruginosa ATCC 15442. Clinical strains of bacteria used in this study: Gram-positive: Staphylococcus epidermidis 5253, Staphylococcus epidermidis 4243, Staphylococcus aureus […], Staphylococcus aureus […] and Gram-negative: Escherichia coli 520, Escherichia coli 600, Klebsiella pneumoniae 510 and Pseudomonas aeruginosa 659 were obtained from the collection of the Department of Pharmaceutical Microbiology, Medical University of Warsaw, Poland and they were isolated from different biological materials taken from the patients hospitalized in the Warsaw Medical University hospitals. […] MIC was determined by the two-fold serial broth microdilution method in 96-well microtitration plates using Mueller-Hinton II broth medium (Becton Dickinson, Franklin Lakes, NJ, USA). The final inoculum of all studied bacteria was 10^6 CFU/mL (colony forming unit per milliliter). The stock solution of tested compounds was prepared in dimethyl sulfoxide (DMSO) and diluted to a maximum of 1% of solvent content with a sterile medium.
In general terms: Dilution methods test growth across graded concentrations, often in twofold steps.

The subject of experiment [2] is S. epidermidis ATCC 35984. Briefly: MIC broth microdilution, standard strain. Type of experiment: cell-based. As to conditions: Staphylococcus epidermidis, ATCC35984; S. epidermidis ATCC 35984, standard strain, 19 h at 35 °C; read-out: minimal inhibitory concentration (MIC). The method, then: as §1
In the next experiment the test system is S. aureus ATCC 29213. Briefly: MIC broth microdilution, standard strain. Type of experiment: cell-based. Conditions: Staphylococcus aureus, ATCC29213; S. aureus ATCC 29213, standard strain, 19 h at 35 °C; read-out: minimal inhibitory concentration (MIC). As to the method:
as §1

In experiment [3] the test system is S. epidermidis ATCC 12228. Briefly: MIC broth microdilution, standard strain. In kind it is cell-based. As to conditions: Staphylococcus epidermidis, ATCC12228; S. epidermidis ATCC 12228, standard strain, 19 h at 35 °C; read-out: minimal inhibitory concentration (MIC). As to the method:
as §1

For a further experiment, the target named is S. aureus DNA gyrase (Staphylococcus aureus, UniProt P0A0K8+P20831). Briefly: DNA gyrase supercoiling assay. In kind it is biochemical. As to conditions: pBR322, read-out: IC50 ± S.E.M. for DNA Gyrase (converted). As to the method: (§2) Description related to conducted biological studies including cell culture, suitable conditions, and methodology was presented in our previous paper.
S. aureus DNA gyrase, sequence (P0A0K8 whole entry): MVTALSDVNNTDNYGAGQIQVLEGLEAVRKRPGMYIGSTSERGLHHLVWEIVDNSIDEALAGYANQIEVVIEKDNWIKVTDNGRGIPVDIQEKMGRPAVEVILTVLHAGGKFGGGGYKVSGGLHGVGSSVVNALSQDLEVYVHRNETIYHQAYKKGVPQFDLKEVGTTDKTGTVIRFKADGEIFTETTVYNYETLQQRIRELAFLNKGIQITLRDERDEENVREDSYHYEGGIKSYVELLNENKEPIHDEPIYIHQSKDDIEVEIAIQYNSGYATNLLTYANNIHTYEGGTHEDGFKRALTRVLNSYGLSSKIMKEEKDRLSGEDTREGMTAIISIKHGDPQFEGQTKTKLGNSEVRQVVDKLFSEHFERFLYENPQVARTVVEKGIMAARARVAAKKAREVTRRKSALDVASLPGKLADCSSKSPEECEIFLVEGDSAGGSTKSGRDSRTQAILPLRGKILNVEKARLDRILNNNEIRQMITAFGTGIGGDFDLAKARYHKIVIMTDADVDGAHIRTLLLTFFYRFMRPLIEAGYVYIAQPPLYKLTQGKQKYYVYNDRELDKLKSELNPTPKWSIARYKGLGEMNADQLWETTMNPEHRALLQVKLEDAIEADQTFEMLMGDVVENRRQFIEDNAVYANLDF
S. aureus DNA gyrase, sequence (P20831 whole entry): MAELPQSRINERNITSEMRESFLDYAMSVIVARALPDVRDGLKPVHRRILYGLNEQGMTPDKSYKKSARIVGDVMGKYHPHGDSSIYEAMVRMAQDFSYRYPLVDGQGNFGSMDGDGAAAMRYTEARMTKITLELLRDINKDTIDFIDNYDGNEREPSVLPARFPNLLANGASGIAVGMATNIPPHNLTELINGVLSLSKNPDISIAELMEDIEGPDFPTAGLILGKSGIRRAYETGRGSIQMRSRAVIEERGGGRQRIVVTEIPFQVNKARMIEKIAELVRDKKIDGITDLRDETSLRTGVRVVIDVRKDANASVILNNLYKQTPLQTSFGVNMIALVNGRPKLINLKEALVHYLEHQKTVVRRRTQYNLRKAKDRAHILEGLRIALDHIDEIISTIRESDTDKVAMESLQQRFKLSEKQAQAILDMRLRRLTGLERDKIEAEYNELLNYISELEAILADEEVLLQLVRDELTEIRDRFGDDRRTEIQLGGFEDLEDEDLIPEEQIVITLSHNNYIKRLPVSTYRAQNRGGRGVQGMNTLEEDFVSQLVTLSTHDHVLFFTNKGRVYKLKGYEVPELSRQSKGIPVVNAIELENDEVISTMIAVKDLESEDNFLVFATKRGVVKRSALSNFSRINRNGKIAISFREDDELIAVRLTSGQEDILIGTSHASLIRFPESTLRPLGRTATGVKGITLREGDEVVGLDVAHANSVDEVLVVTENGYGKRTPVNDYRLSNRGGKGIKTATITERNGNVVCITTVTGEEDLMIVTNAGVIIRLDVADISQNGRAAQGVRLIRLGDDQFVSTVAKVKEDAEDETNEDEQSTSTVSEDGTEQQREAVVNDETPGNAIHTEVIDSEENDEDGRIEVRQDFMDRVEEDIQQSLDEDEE
Figure 2 The influence of tested compounds on S. aureus DNA gyrase activity. Decreasing amounts of 1, 2, or 3 were incubated with supercoiled pBR322 plasmid DNA (500 ng) and run-on agarose gel. Lane 1: S. aureus DNA gyrase assay with DMSO (control). Lane: 2–5: compound 3 at concentrations 64, 32, 8, 2 μg/mL, respectively. Lane: 6–9: compound 2 at concentrations 64, 32, 8, 2 μg/mL, respectively. Lane: 10–13: compound 1 at concentrations 64, 32, 8, 2 μg/mL, respectively.

For experiment [4], the target named is S. aureus topoisomerase IV (Staphylococcus aureus, UniProt P0C1S7+P0C1U9). Briefly: Topoisomerase IV decatenation assay. Type of experiment: biochemical. Conditions: decatenation of kinetoplast DNA, read-out: IC50 ± S.E.M. for Topoisomerase IV (converted). The method, then: as §2
S. aureus topoisomerase IV, sequence (P0C1S7 whole entry): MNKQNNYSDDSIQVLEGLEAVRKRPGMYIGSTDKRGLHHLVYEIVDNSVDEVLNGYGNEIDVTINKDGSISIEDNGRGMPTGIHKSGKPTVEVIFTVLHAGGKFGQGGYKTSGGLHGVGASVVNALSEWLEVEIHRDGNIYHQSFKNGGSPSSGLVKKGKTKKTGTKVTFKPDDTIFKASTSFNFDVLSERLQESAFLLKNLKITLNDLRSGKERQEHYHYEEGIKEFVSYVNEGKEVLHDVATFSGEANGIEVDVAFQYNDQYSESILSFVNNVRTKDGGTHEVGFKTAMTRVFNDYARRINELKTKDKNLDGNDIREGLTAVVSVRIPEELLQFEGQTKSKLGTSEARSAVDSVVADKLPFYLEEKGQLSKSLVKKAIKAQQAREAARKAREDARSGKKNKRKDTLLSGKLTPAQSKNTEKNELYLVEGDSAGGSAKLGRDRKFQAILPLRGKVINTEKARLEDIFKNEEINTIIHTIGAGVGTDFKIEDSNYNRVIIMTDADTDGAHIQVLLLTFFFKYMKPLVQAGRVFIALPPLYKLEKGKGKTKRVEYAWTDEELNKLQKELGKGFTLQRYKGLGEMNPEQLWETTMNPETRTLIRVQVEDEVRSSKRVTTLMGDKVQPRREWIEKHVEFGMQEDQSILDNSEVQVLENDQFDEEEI
S. aureus topoisomerase IV, sequence (P0C1U9 whole entry): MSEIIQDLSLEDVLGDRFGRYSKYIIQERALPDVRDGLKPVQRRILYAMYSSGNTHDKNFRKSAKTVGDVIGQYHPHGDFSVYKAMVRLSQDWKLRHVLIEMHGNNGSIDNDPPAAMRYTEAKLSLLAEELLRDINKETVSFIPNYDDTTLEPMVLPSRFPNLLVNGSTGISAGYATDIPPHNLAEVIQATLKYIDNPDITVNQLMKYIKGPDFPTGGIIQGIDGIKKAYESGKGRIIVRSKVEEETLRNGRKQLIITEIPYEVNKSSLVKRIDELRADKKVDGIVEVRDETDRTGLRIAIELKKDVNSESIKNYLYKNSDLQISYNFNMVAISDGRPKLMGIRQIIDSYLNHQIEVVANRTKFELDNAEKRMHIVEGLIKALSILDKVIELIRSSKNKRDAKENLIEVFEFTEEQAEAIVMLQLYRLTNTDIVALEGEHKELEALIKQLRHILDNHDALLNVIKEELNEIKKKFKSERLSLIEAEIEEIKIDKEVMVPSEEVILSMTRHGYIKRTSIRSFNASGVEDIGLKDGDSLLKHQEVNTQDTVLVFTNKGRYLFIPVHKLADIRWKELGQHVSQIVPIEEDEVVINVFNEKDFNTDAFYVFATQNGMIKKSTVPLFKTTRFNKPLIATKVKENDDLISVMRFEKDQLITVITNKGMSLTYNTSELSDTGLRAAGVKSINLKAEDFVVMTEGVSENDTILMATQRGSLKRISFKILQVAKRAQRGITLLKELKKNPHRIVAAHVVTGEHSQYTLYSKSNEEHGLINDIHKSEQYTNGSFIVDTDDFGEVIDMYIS
Figure 1 The effect of tested compounds on S. aureus topoisomerase IV activity. Decreasing amounts of 1, 2, or 3 were incubated with 200 ng kinetoplast DNA and run-on agarose gel. Lane: 1–5: compound 3 at concentrations 64, 32, 8, 2, 0.5 μg/mL, respectively. Lane: 6–10: compound 2 at concentrations 64, 32, 8, 2, 0.5 μg/mL, respectively. Lane: 11–15: compound 1 at concentrations 64, 32, 8, 2, 0.5 μg/mL, respectively.

[5] abbreviates: 19 h, against Gram-positive clinical strains, read-out: MIC values, range.
Setting [6] is: 19 h, clinical (hospital) strains, read-out: MIC values, range.
[7] abbreviates: all clinical Staphylococci panels: S. aureus (T5592; T5591) and S. epidermidis (5253; 4243), read-out: MIC values.

With `CC1=C(C)C2(C)CC1(C)C1C(=O)N(Nc3nnnn3-c3ccccc3)C(=O)C12` (stereo not shown) [Compound 6, 4,5,6,7-Tetramethyl-2-((1-phenyl-1H-tetrazol-5-yl)amino)-3a,4,7,7a-tetrahydro-1H-4,7-methanoisoindole-1,3(2H)-dione], the MIC in experiment [1] (setting [5]) is 2 to 32 µg/mL (≈ 5.28 to 84.6 µM); with S. aureus ATCC 6538 it was 2 µg/mL (≈ 5.28 µM); in experiment [2], 4 µg/mL (≈ 10.6 µM); with S. aureus ATCC 29213, 4 µg/mL (≈ 10.6 µM); in experiment [3], 16 µg/mL (≈ 42.3 µM).

On to `Cc1ccc(-n2nnnc2NN2C(=O)C3C(C2=O)C2(C(C)C)C=CC3(C)CC2)cc1` (stereo not shown) [Compound 10, 4-Isopropyl-7-methyl-2-((1-(p-tolyl)-1H-tetrazol-5-yl)amino)-3a,4,7,7a-tetrahydro-1H-4,7-ethanoisoindole-1,3(2H)-dione], for which the MIC in experiment [1] (setting [5]) is 2 to 32 µg/mL (≈ 4.92 to 78.7 µM); with S. aureus ATCC 6538 it was 4 µg/mL (≈ 9.84 µM); in experiment [2], 8 µg/mL (≈ 19.7 µM); in the experiment on S. aureus ATCC 29213 it was 8 µg/mL (≈ 19.7 µM); in experiment [3] it was 32 µg/mL (≈ 78.7 µM).

Regarding `CC(C)C12C=CC(C)(CC1)C1C(=O)N(Nc3nnnn3-c3ccc([N+](=O)[O-])cc3)C(=O)C12` (stereo not shown) [Compound 8, 4-Isopropyl-7-methyl-2-((1-(4-nitrophenyl)-1H-tetrazol-5-yl)amino)-3a,4,7,7a-tetrahydro-1H-4,7-ethanoisoindole-1,3(2H)-dione], the MIC is 2 to 32 µg/mL (≈ 4.57 to 73.1 µM) in experiment [1] (setting [5]); 8 µg/mL (≈ 18.3 µM) in the experiment with S. aureus ATCC 6538; 16 µg/mL (≈ 36.6 µM) in experiment [2]; 8 µg/mL (≈ 18.3 µM) in the experiment on S. aureus ATCC 29213; 16 µg/mL (≈ 36.6 µM) in experiment [3].

Take `CC1=C(C)C2(C)CC1(C)C1C(=O)N(Nc3nnnn3-c3ccccc3Br)C(=O)C12` (stereo not shown) [Compound 3, 2-((1-(2-Bromophenyl)-1H-tetrazol-5-yl)amino)-4,5,6,7-tetramethyl-3a,4,7,7a-tetrahydro-1H-4,7-methanoisoindole-1,3(2H)-dione]: the 50% inhibitory concentration (IC50) on S. aureus DNA gyrase is 99.3 µM; in experiment [4], 134 µM. The MIC was 0.8 to 3.2 µg/mL (≈ 1.75 to 7 µM) in experiment [1] (setting [6]); 0.8 µg/mL (≈ 1.75 µM) in experiment [1] (setting [7]); 0.2 µg/mL (≈ 0.437 µM) in the experiment with S. aureus ATCC 6538; 0.2 µg/mL (≈ 0.437 µM) in experiment [2]; 0.2 µg/mL (≈ 0.437 µM) in the experiment with S. aureus ATCC 29213; 2 µg/mL (≈ 4.37 µM) in experiment [3].

`CC(C)C12C=CC(C)(CC1)C1C(=O)N(Nc3nnnn3-c3ccccc3Br)C(=O)C12` (stereo not shown) [Compound 9, 2-((1-(2-Bromophenyl)-1H-tetrazol-5-yl)amino)-4-isopropyl-7-methyl-3a,4,7,7a-tetrahydro-1H-4,7-ethanoisoindole-1,3(2H)-dione]: the MIC in experiment [1] (setting [5]) was 2 to 32 µg/mL (≈ 4.24 to 67.9 µM); with S. aureus ATCC 6538 it was 64 µg/mL (≈ 136 µM); in experiment [2], 64 µg/mL (≈ 136 µM); in the experiment with S. aureus ATCC 29213, 64 µg/mL (≈ 136 µM); in experiment [3], 128 µg/mL (≈ 272 µM).

On to `CC1=C(C)C2(C)CC1(C)C1C(=O)N(Nc3nnnn3-c3ccc([N+](=O)[O-])cc3)C(=O)C12` (stereo not shown) [Compound 4, 4,5,6,7-Tetramethyl-2-((1-(4-nitrophenyl)-1H-tetrazol-5-yl)amino)-3a,4,7,7a-tetrahydro-1H-4,7-methanoisoindole-1,3(2H)-dione], for which the MIC is 2 to 32 µg/mL (≈ 4.72 to 75.6 µM) in experiment [1] (setting [5]); 32 µg/mL (≈ 75.6 µM) in the experiment on S. aureus ATCC 6538; 32 µg/mL (≈ 75.6 µM) in experiment [2]; 16 µg/mL (≈ 37.8 µM) with S. aureus ATCC 29213; 32 µg/mL (≈ 75.6 µM) in experiment [3].

Regarding `CC1=C(C)C2(C)CC1(C)C1C(=O)N(Nc3nnnn3-c3cccc(C(F)(F)F)c3)C(=O)C12` (stereo not shown) [Compound 1, 4,5,6,7-Tetramethyl-2-((1-(3-(trifluoromethyl)phenyl)-1H-tetrazol-5-yl)amino)-3a,4,7,7a-tetrahydro-1H-4,7-methanoisoindole-1,3(2H)-dione], the IC50 was 71.8 µM on S. aureus DNA gyrase and 142 µM in experiment [4]. Also, the MIC was 0.8 to 3.2 µg/mL (≈ 1.79 to 7.17 µM) in experiment [1] (setting [6]); 0.8 µg/mL (≈ 1.79 µM) in experiment [1] (setting [7]); 0.2 µg/mL (≈ 0.448 µM) in the experiment with S. aureus ATCC 6538; 0.2 µg/mL (≈ 0.448 µM) in experiment [2]; 0.2 µg/mL (≈ 0.448 µM) with S. aureus ATCC 29213; 3.2 µg/mL (≈ 7.17 µM) in experiment [3].

As to `CC1=C(C)C2(C)CC1(C)C1C(=O)N(Nc3nnnn3-c3ccccc3Cl)C(=O)C12` (stereo not shown) [Compound 2, 2-((1-(2-Chlorophenyl)-1H-tetrazol-5-yl)amino)-4,5,6,7-tetramethyl-3a,4,7,7a-tetrahydro-1H-4,7-methanoisoindole-1,3(2H)-dione], the IC50 on S. aureus DNA gyrase is 90.9 µM; in experiment [4], 141 µM. For the same compound, the MIC in experiment [1] (setting [6]) is 0.8 to 3.2 µg/mL (≈ 1.94 to 7.75 µM); in experiment [1] (setting [7]) it was 0.8 µg/mL (≈ 1.94 µM); in the experiment with S. aureus ATCC 6538, 0.4 µg/mL (≈ 0.969 µM); in experiment [2], 0.4 µg/mL (≈ 0.969 µM); with S. aureus ATCC 29213 it was 0.8 µg/mL (≈ 1.94 µM); in experiment [3], 3.2 µg/mL (≈ 7.75 µM).
